Marks after values point to notes of the source that are not given here.
Assays:
[1] = system: human dermal fibroblasts; test: Pro-collagen (type I) effect: released type I collagen (ELISA) and cellular proteins (Bradford); type: cell-based; settings: 5 μg/ml; 3 days; percentage referring to the control medium; mean +/- SEM
Protocol: Manilkara multinervis extract according to example 1 was incubated on human dermal fibroblasts cultured in vitro and the release of collagen type I was measured in cell culture medium through an ELISA method. It was tested in comparison to the positive reference vitamin C (ascorbic acid). The human dermal fibroblasts were cultured within growth medium enriched with Fetal Calf Serum (FCS) and incubated for 1 day at 37° C. […] Thereafter, the cell number was measured by quantification of cellular proteins (Bradford's method) while the level of collagen synthesis was determined by quantification of collagen peptides in cell culture medium (ELISA method). The results were calculated through a reference range of proteins or collagen and then expressed in percentage referring to the control medium and presented as a mean+/−SEM (Standard Error of Mean) from 4 assays in triplicate.

[2] = system: collagen type I; test: Anti-glycation: non enzymatic glycation of collagen type I incubated with glucose (Schiff's bases fluorescence); type: biochemical; settings: 3 weeks at 45° C., mean +/- SEM
Protocol: In order to evaluate the potential of Manilkara multinervis extract to reduce the rate of “non enzymatic” glycation of proteins such as skin collagen, the extract was tested in comparison to aminoguanidine as a positive reference. The “non-enzymatic” glycation results from the reaction of proteins with reducing sugars such as glucose and […]. These sugars react with the free amino groups present in the proteins to form the so called “Schiff's bases”, ultimately resulting in so-called “advanced glycosylation endproducts”. In human skin, the process of “non enzymatic” glycation causes in time a decrease of strength and an atrophy of dermis which are characteristic of skin aging.
The extracts were tested in vitro by incubating collagen type I in solution with glucose during 3 weeks at 45° C. Then the level of “non enzymatic” glycation was determined by measuring the rate of “Schiff's bases” through the record of fluorescence at 430 nm (excitation at 350 nm) of the supernatant solution recovered after centrifugation of the solutions during 15 minutes at 3500 rpm (revolution per minute). The rates of “non enzymatic” glycation were calculated as % referring to the control with glucose. The assays were repeated up to 6 times and the results were expressed in percentage referring to the control with glucose then presented as a mean+/− the SEM (standard error of mean) and statistically evaluated by the student t test. All % values given are weight-%.

[3] = system: human dermal fibroblasts; test: Fibulin-5 synthesis by immunocytochemistry (ICC); type: cell-based; settings: 10 ng/ml, mean only
Protocol: Manilkara multinervis extract according to example 1 was incubated on human dermal fibroblasts cultured in vitro and the synthesis of fibulin-5 was measured in cell culture medium through an ICC method. It was tested in comparison to the positive reference TGF-β1 (Transforming Growth Factor-β1).
(§1) The human dermal fibroblasts were cultured within growth medium enriched with Fetal Calf Serum (FCS) and incubated for 3 days at 37° C. Then the growth medium was exchanged for a standard medium containing FCS at 1% and the Manilkara multinervis extract according to example 1 and incubated for 5 days at 37° C. Thereafter, the fibulin-5 synthesis was measured by immunocytochemistry (ICC) technique. The results were expressed in percentage of staining occupation and presented for 2 assays as a mean+/−SEM (Standard Error of Mean) of 6 measurements.

[4] = system: human dermal fibroblasts; test: Tropoelastin synthesis by immunocytochemistry (ICC); type: cell-based; settings: 10 ng/ml
Protocol: Manilkara multinervis extract according to example 1 was incubated on human dermal fibroblasts cultured in vitro and the synthesis of tropoelastin was measured in cell culture medium through an ICC method. It was tested in comparison to the positive reference TGF-β1 (Transforming Growth Factor-β1).
as §1, with “several” for “for 5”, “tropoelastin” for “fibulin-5”, “3” for “2”

O=C1O[C@H]([C@@H](O)CO)C(O)=C1O [Vitamin C, ascorbic acid]
Cellular Proteins [1]: 97 +/− 4% | Released type I Collagen [1]: 138 +/− 14** %

N=C(N)NN [Aminoguanidine, aminoguanidine]
Rate of Schiff's bases in %/control with glucose ([2]; 0.02%): 47 +/− 1** (n = 6) %/control with glucose | Rate of Schiff's bases in %/control with glucose ([2]; 0.05%): 34 +/− 1** (n = 6) %/control with glucose | Rate of Schiff's bases in %/control with glucose ([2]; 0.1%): 27 +/− 1** (n = 6) %/control with glucose

TGF-β1: positive reference TGF-β1 (Transforming Growth Factor-β1)
% of staining occupation Assay 1 (fibulin-5) ([3]; Assay 1, control 15.57 +/− 4.38): 79.99% | % of staining occupation Assay 2 (fibulin-5) ([3]; Assay 2, control 2.65 +/− 0.36): 18.8% | stimulation of tropoelastin synthesis (mean) [4]: 82%
